Data reported in ChEMBL document CHEMBL4304741, “Modification and Biological Evaluation of a Series of 1,5-Diaryl-1,2,4-triazole Compounds as Novel Agents against Pancreatic Cancer Metastasis through Targeting Myoferlin” (J Med Chem, 2019).
Active and inactive are the calls of the source. No cut-off for these calls is given here.

Legend:
PANC-1 [1] = assay: Cytotoxicity against human PANC1 cells assessed as reduction in cell viability measured after 48 hrs by MTS assay; format: cell-based; conditions: PANC-1, 48 h
PANC-1 [2] = assay: Effect on Twist1 expression in human PANC1 cells up to 400 nM by Western blot analysis; format: functional, cell-based
[3] = Toxicity in Balb/c nude mouse xenografted with PANC1 cells assessed as body weight loss at 25 to 50 mg/kg/day, ip; format: organism-based; conditions: in vivo
PANC-1 [4] = assay: Effect on VEGFR2 expression in MYOF-knockout human PANC1 cells up to 400 nM by Western blot analysis; format: functional, cell-based
Myoferlin [5] = biological target: T1, Myoferlin (Homo sapiens, UniProt Q9NZM1); assay: Reversible binding affinity to recombinant human GST-tagged MYOF C2 domain (3445 to 3912 residues) expressed in Escherichia coli BL21 (DE3) by surface plasmon resonance analysis
T1 sequence (Q9NZM1 whole entry, the tested form may be a part): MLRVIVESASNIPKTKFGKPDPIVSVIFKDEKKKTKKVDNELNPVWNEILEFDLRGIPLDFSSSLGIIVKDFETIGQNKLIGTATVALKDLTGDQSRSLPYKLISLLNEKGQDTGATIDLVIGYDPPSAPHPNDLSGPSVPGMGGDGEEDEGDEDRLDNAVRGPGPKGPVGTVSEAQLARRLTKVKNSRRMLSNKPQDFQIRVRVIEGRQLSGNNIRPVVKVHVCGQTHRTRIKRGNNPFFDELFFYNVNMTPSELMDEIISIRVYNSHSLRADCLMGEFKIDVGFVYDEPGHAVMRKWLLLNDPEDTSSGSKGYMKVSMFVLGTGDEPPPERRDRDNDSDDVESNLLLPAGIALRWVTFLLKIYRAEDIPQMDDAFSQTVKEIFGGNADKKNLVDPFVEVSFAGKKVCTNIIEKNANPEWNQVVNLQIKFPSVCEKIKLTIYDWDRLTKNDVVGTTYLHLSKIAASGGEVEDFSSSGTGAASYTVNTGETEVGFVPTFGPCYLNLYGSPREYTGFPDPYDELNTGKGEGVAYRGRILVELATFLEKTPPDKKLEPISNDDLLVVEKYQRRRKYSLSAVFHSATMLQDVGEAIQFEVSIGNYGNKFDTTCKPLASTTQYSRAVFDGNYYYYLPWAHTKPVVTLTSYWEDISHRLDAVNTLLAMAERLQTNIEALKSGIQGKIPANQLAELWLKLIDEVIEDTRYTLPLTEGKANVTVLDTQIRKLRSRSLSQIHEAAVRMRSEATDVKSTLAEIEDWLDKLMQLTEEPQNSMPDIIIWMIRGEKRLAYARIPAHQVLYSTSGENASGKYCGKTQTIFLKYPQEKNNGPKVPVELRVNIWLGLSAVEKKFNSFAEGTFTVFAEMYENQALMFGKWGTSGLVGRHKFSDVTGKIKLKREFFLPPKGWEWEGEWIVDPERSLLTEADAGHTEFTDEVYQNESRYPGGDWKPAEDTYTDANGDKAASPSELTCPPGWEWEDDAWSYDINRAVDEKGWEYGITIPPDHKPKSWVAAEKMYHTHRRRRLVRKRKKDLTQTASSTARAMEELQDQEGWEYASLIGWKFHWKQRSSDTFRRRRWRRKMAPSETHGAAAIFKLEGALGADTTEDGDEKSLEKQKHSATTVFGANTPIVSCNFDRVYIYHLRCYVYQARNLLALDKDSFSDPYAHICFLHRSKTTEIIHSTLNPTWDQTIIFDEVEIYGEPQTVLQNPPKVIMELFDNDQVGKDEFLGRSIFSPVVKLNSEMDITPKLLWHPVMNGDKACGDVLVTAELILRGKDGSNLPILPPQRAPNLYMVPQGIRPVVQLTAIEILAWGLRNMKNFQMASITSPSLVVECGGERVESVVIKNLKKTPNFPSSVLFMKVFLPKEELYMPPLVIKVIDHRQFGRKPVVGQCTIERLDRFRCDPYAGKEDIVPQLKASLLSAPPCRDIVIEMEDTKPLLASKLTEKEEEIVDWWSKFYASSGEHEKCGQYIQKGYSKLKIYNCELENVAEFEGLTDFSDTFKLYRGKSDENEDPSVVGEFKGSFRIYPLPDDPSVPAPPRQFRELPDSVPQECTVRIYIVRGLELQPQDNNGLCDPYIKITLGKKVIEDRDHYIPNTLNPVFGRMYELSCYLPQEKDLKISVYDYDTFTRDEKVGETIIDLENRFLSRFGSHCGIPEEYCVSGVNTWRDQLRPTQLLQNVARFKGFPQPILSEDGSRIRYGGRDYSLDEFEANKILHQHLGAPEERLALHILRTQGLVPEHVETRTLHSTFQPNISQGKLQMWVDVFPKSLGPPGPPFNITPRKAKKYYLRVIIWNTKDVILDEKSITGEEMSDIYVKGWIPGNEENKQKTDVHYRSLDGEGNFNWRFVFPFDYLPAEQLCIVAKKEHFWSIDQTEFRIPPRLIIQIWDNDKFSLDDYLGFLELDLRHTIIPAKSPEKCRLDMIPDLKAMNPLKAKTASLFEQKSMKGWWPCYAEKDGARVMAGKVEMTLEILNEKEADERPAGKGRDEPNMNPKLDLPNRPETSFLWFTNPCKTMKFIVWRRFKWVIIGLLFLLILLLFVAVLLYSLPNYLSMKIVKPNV

Myoferlin [6] = biological target: T1, Myoferlin; assay: Inhibition of MYOF in human PANC1 cells assessed as reversal of epithelial-mesenchymal transition by measuring down regulation of fibronectin expression up to 400 nM by Western blot analysis; format: cell-based
PANC-1 [7] = assay: Effect on EGFR expression in MYOF-knockout human PANC1 cells up to 400 nM by Western blot analysis; format: functional, cell-based
[8] = biological target: Epidermal growth factor receptor (Homo sapiens) (UniProt P00533); assay: Effect on EGF-stimulated EGFR phosphorylation in MYOF-knockout human PANC1 cells at 400 nM by Western blot analysis
Epidermal growth factor receptor (Homo sapiens), sequence (P00533 whole entry): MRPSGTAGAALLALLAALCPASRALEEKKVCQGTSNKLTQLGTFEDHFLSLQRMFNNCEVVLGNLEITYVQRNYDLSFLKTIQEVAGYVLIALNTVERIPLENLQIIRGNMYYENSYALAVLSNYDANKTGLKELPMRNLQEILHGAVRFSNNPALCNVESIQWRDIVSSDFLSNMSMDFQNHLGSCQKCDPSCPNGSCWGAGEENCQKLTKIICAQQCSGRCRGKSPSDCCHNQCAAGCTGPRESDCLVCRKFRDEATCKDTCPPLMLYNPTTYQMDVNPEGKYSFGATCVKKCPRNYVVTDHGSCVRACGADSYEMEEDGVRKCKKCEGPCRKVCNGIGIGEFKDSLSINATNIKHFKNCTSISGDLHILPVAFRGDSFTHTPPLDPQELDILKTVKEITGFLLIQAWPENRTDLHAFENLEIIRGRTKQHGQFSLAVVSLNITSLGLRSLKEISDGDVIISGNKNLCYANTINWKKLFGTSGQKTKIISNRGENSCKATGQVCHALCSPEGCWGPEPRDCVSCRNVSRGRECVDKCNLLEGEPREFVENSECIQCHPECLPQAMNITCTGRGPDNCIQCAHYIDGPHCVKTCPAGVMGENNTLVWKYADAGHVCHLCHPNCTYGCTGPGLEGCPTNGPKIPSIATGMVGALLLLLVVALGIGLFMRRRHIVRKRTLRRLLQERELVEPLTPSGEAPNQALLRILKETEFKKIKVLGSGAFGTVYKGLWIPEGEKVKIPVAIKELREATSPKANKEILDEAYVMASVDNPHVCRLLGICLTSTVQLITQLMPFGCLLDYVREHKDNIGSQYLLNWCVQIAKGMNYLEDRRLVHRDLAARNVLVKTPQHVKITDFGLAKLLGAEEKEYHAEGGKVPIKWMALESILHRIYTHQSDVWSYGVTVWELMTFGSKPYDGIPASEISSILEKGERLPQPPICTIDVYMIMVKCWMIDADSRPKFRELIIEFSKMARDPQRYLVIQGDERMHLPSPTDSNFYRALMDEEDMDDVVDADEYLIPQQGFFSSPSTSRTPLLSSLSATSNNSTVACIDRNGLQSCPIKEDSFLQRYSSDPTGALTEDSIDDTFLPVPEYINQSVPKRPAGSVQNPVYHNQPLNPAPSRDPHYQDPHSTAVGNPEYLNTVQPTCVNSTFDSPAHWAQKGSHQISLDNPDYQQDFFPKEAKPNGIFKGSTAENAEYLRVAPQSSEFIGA

PANC-1 [9] = assay: Antimetastatic activity against human PANC1 cells harboring luciferase reporter gene xenografted in Balb/c nude mouse assessed as mouse survival at 50 mg/kg/day, ip (reference value: 25%); format: functional; conditions: PANC-1, ip
Myoferlin [10] = biological target: T1, Myoferlin; assay: Binding affinity to recombinant human GST-tagged MYOF C2 domain (3445 to 3912 residues) expressed in Escherichia coli BL21 (DE3) at 145 uM by STD-NMR analysis
Cytochrome P450 3A4 = Cytochrome P450 3A4 (Homo sapiens, UniProt P08684); assay: Inhibition of CYP3A4 in human liver microsomes using midazolam as substrate preincubated for 5 mins followed by NADPH-generating system addition and measured after 20 mins by LC-MS/MS analysis
Cytochrome P450 3A4, sequence (P08684 whole entry): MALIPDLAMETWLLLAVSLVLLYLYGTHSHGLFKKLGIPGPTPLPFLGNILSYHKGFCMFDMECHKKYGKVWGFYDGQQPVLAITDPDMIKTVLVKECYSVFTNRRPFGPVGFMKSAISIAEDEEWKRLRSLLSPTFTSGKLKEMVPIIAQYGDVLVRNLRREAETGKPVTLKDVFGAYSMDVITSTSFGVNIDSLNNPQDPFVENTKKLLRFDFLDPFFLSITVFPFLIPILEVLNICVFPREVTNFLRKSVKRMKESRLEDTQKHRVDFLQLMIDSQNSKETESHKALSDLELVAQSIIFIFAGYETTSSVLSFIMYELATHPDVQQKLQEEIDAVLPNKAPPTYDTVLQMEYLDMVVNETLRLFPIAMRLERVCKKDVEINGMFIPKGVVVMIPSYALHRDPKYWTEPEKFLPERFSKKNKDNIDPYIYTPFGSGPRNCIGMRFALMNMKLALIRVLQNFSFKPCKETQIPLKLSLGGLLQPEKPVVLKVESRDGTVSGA

[11] = Toxicity in Balb/c nude mouse xenografted with PANC1 cells assessed as pathological changes in kidney at 25 to 50 mg/kg/day, ip by H and E staining-based microscopic analysis; format: organism-based; conditions: in vivo
[12] = Toxicity in Balb/c nude mouse xenografted with PANC1 cells assessed as pathological changes in heart at 25 to 50 mg/kg/day, ip by H and E staining-based microscopic analysis; format: organism-based; conditions: in vivo
PANC-1 [13] = assay: Effect on MMP1 secretion in MYOF-knockout human PANC1 cells up to 400 nM by Western blot analysis; format: functional, cell-based
PANC-1 [14] = assay: Effect on MMP2 secretion in MYOF-knockout human PANC1 cells up to 400 nM by Western blot analysis; format: functional, cell-based
Myoferlin [15] = biological target: T1, Myoferlin; assay: Inhibition of MYOF in human PANC1 cells assessed as reduction in MMP2 secretion measured after 24 hrs by SDS-PAGE analysis; format: cell-based
PANC-1 [16] = assay: Antimetastatic activity against human PANC1 cells harboring luciferase reporter gene xenografted in Balb/c nude mouse assessed as reduction in lung metastasis burden by measuring reduction in luminescence at 50 mg/kg/day, ip measured every 10 days by bioluminescence imaging analysis relative to control; format: functional
PANC-1 [17] = assay: Antiinvasive activity against human PANC1 cells measured after 18 hrs in presence of mitomycin C using crystal violet staining by inverted microscopy-based matrigel coated transwell assay; format: functional, cell-based; conditions: PANC-1, 18 h
MIA PaCa-2 = assay: Antimigratory activity against human MIAPaCa2 cells measured after 24 hrs in presence of mitomycin C using crystal violet staining by inverted microscopy-based transwell assay; format: functional, cell-based
Myoferlin [18] = biological target: T1, Myoferlin; assay: Inhibition of MYOF in human PANC1 cells assessed as increase in EGF-stimulated EGFR phosphorylation by Western blot analysis; format: cell-based
[19] = Toxicity in Balb/c nude mouse xenografted with PANC1 cells assessed as pathological changes in lung at 25 to 50 mg/kg/day, ip by H and E staining-based microscopic analysis; format: organism-based; conditions: in vivo
PANC-1 [20] = assay: Effect on fibronectin expression in MYOF-knockout human PANC1 cells up to 400 nM by Western blot analysis; format: functional, cell-based
PANC-1 [21] = assay: Antimetastatic activity against human PANC1 cells harboring luciferase reporter gene xenografted in Balb/c nude mouse administered intraperitoneally once daily measured every 10 days by bioluminescence imaging analysis; format: functional, cell-based
[22] = Toxicity in Balb/c nude mouse xenografted with PANC1 cells assessed as pathological changes in spleen at 25 to 50 mg/kg/day, ip by H and E staining-based microscopic analysis; format: organism-based; conditions: in vivo
[23] = Toxicity in Balb/c nude mouse xenografted with PANC1 cells assessed as pathological changes in liver at 25 to 50 mg/kg/day, ip by H and E staining-based microscopic analysis; format: organism-based; conditions: in vivo
PANC-1 [24] = assay: Effect on myosin 2A expression in human PANC1 cells up to 400 nM by Western blot analysis; format: functional, cell-based

For `CCc1nc(-c2ncc(OC)cn2)n(-c2cccc(C(=O)NCCCCc3ccccc3)c2)n1`, the IC50 (PANC-1 [1]) was 840 nM, the Activity (PANC-1 [2]) was “inactive” and the Activity [3] was “Non-Toxic”. The Activity (PANC-1 [4]) was “inactive”, the Activity (Myoferlin [5]) was “Dose-dependent effect” and the Kd (Myoferlin [5]) was 94 nM. The inhibition (Myoferlin [6]) was “Dose-dependent effect”, the Activity (PANC-1 [7]) was “inactive” and the Activity [8] was “inactive”. For the same molecule, the survival at 50 mg/kg/day (PANC-1 [9]) was 87.5%, the Activity (Myoferlin [10]) was “Active” and the IC50 (Cytochrome P450 3A4) was greater than 50000 nM. The Activity [11] was “Non-Toxic”, the Activity [12] was “Non-Toxic” and the Activity (PANC-1 [13]) was “inactive”. For the same molecule, the Activity (PANC-1 [14]) was “inactive”, the inhibition (Myoferlin [15]) was “Dose-dependent effect” and the “fold change (FC)” value (PANC-1 [16]) was 5. The IC50 (PANC-1 [17]) was 120 nM, the Activity (MIA PaCa-2) was “Dose-dependent effect” and the inhibition (Myoferlin [18]) was “Dose-dependent effect”. For the same molecule, the Activity [19] was “Non-Toxic”, the Activity (PANC-1 [20]) was “inactive” and the Activity (PANC-1 [21]) was “Dose-dependent effect”. For the same molecule, the Activity [22] was “Non-Toxic”, the Activity [23] was “Non-Toxic” and the Activity (PANC-1 [24]) was “inactive”.
